Experiments:
[1] = molecular target: T1, wild type EGFR tyrosine kinase (EGFR^wt) (Homo sapiens, UniProt P00533); assay: In vitro EGFR^wt-TK assay (ELISA); format: biochemical; settings: mean ± SD of three replicates; for inhibition at 1 µM: read-out: EGFR^wt-TK inhibition rate
T1 construct: purchased PTM Bio; Co., Ltd

PC-3 cells = assay: Cytotoxicity evaluation (MTT assay), PC-3; format: cell-based; settings: Homo sapiens, mean ± SD of three replicates
HepG2 cells = assay: Cytotoxicity evaluation (MTT assay), HepG2; format: cell-based; settings: Homo sapiens, mean ± SD of three replicates
A549 cells = assay: Cytotoxicity evaluation (MTT assay), A549; format: cell-based; settings: Homo sapiens, mean ± SD of three replicates
L02 cells = assay: Cytotoxicity evaluation (MTT assay), L02 normal cells; settings: Homo sapiens, L02, read-out: IC50 L02
Experimental: Three tumour cells with high expression of EGFR^wt were used to test the antitumor activity of the compounds including, A549 (Human non-small-cell lung cancer cell line) cells, PC-3 (Human prostate cancer cell line) cells, and HepG2 (Human hepatocellular carcinomas cell line) cells. They were all purchased from the Shanghai Cell Bank of the Chinese Academy of Sciences. L02 (normal human liver cell line) cells were also used to evaluate the cytotoxicity. […] The IC50 values were calculated from the dose − response curve under Graph-Pad Prism.

T1 sequence (P00533 25-1210): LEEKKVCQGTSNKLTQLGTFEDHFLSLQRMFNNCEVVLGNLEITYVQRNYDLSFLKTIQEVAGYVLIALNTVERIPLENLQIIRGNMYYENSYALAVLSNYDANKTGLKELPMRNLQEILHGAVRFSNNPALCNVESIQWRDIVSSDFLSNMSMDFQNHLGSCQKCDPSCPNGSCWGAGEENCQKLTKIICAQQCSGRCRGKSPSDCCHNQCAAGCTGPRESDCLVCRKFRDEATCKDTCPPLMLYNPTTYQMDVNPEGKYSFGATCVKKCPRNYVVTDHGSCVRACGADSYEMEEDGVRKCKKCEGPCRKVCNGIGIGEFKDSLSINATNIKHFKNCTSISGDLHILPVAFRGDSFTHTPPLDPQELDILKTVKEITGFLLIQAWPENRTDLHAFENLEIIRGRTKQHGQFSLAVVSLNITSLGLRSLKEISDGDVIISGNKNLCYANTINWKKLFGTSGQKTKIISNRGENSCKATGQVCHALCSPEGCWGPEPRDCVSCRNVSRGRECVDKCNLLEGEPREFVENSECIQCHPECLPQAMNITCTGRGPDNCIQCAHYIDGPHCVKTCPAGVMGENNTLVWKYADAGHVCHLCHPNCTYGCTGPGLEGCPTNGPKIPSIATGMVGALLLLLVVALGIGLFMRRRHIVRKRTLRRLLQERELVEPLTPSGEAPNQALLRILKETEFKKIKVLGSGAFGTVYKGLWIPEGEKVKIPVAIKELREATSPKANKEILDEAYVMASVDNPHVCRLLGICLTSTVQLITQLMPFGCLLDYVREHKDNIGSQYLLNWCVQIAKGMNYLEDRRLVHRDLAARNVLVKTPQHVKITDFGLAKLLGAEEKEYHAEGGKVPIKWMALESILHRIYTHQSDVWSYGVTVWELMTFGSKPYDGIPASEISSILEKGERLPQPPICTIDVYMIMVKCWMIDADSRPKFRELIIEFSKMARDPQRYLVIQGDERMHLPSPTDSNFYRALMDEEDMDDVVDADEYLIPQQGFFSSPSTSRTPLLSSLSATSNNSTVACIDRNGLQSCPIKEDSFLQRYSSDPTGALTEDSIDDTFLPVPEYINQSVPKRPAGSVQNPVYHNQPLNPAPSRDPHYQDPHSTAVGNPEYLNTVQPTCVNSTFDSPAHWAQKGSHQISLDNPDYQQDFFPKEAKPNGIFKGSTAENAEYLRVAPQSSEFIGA

SMILES	inhibition at 1 µM ([1]; 1 μM)	IC50 (PC-3 cells)	IC50 (HepG2 cells)	IC50 (A549 cells)	IC50 (L02 cells)	melting point	IC50 [1]	EGFR^wt-TK inhibition rate ([1]; 1 μM)
CCC(=O)NCCNc1c(Nc2ccc(Nc3ncc(C(F)(F)F)c(Nc4sccc4C(=O)NC)n3)cc2)c(=O)c1=O [8a, 2-(2-{4-[3,4-Dioxo-2-(2-propionylamino-ethylamino)-cyclobut-1-enylamino]-phenylamino}-5-trifluoromethyl-pyrimidin-4-ylamino)-thiophene-3-carboxylic acid methylamide]	6.86 ± 0.11%	> 20 µM	> 20 µM	> 20 µM	> 40 µM	> 250 °C	–	–
CNC(=O)c1ccsc1Nc1nc(Nc2ccc(Nc3c(NCCNC(=O)C=Cc4ccccc4)c(=O)c3=O)cc2)ncc1C(F)(F)F [8e, 2-[2-(4-{3,4-Dioxo-2-[2-(3-phenyl-acryloylamino)-ethylamino]-cyclobut-1-enylamino}-phenylamino)-5-trifluoromethyl-pyrimidin-4-ylamino]-thiophene-3-carboxylic acid methylamide]	53.1 ± 1.75%	4.12 ± 0.65 µM	4.31 ± 0.39 µM	3.15 ± 0.44 µM	> 40 µM	> 250 °C	0.64 ± 0.1 µM	–
CNC(=O)c1ccsc1Nc1nc(Nc2ccc(NC(=O)c3ccccc3F)cc2)ncc1C(F)(F)F [4b, 2-{2-[4-(2-Fluoro-benzoylamino)-phenylamino]-5-trifluoromethyl-pyrimidin-4-ylamino}-thiophene-3-carboxylic acid methylamide]	> 50%	7.81 ± 0.53 µM	7.62 ± 0.46 µM	4.33 ± 0.59 µM	> 40 µM	224.8 to 226.3 °C	0.89 ± 0.12 µM	52.08 ± 1.93%
CNC(=O)c1ccsc1Nc1nc(Nc2ccc(Nc3c(NCCNC(=O)C=Cc4ccc(F)cc4)c(=O)c3=O)cc2)ncc1C(F)(F)F [8g, 2-{2-[4–(2-{2-[3–(4-Fluoro-phenyl)-acryloylamino]-ethylamino}-3,4-dioxo-cyclobut-1-enylamino)-phenylamino]-5-trifluoromethyl-pyrimidin-4-ylamino}-thiophene-3-carboxylic acid methylamide]	52.1 ± 1.93%	6.08 ± 0.94 µM	5.33 ± 0.58 µM	3.14 ± 0.92 µM	> 40 µM	> 250 °C	0.59 ± 0.15 µM	–
CNC(=O)c1ccsc1Nc1nc(Nc2ccc(Nc3c(NCCNC(=O)C4CCCCC4)c(=O)c3=O)cc2)ncc1C(F)(F)F [8d, 2-[2-(4-{2-[2-(Cyclohexanecarbonyl-amino)-ethylamino]-3,4-dioxo-cyclobut-1-enylamino}-phenylamino)-5-trifluoromethyl-pyrimidin-4-ylamino]-thiophene-3-carboxylic acid methylamide]	29 ± 1.55%	8.35 ± 0.74 µM	8.28 ± 0.69 µM	6.14 ± 0.72 µM	> 40 µM	> 250 °C	–	–
CNC(=O)c1ccsc1Nc1nc(Nc2ccc(Nc3c(NCCO)c(=O)c3=O)cc2)ncc1C(F)(F)F [6c, 2–(2-{4-[2-(2-Hydroxy-ethylamino)-3,4-dioxo-cyclobut-1-enylamino]-phenylamino}-5-trifluoromethyl-pyrimidin-4-ylamino)-thiophene-3-carboxylic acid methylamide]	16.6 ± 0.21%	> 20 µM	> 20 µM	> 20 µM	> 40 µM	> 250 °C	–	–
CNC(=O)c1ccsc1Nc1nc(Nc2ccc(Nc3c(NCCNC(=O)C(C)C)c(=O)c3=O)cc2)ncc1C(F)(F)F [8b, 2-(2-{4-[2-(2-Isobutyrylamino-ethylamino)-3,4-dioxo-cyclobut-1-enylamino]-phenylamino}-5-trifluoromethyl-pyrimidin-4-ylamino)-thiophene-3-carboxylic acid methylamide]	7.92 ± 0.54%	> 20 µM	> 20 µM	> 20 µM	> 40 µM	> 250 °C	–	–
CNC(=O)c1ccsc1Nc1nc(Nc2ccc(NC(=O)c3cccc(C(F)(F)F)c3)cc2)ncc1C(F)(F)F [4f, 2-{5-Trifluoromethyl-2-[4-(3-trifluoromethyl-benzoylamino)-phenylamino]-pyrimidin-4-ylamino}-thiophene-3-carboxylic acid methylamide]	30.8 ± 1.09%	8.51 ± 0.64 µM	8.36 ± 0.49 µM	6.14 ± 0.78 µM	> 40 µM	> 250 °C	–	–
CNC(=O)c1ccsc1Nc1nc(Nc2ccc(NC(=O)c3ccc(F)c(F)c3)cc2)ncc1C(F)(F)F [4e, 2-{2-[4-(3,4-Difluoro-benzoylamino)-phenylamino]-5-trifluoromethyl-pyrimidin-4-ylamino}-thiophene-3-carboxylic acid methylamide]	27.9 ± 1.34%	> 20 µM	> 20 µM	> 20 µM	> 40 µM	244.3 to 245.9 °C	–	–
CNC(=O)c1ccsc1Nc1nc(Nc2ccc(Nc3c(NC(C)C)c(=O)c3=O)cc2)ncc1C(F)(F)F [6d, 2-{2-[4-(2-Isopropylamino-3,4-dioxo-cyclobut-1-enylamino)-phenylamino]-5-trifluoromethyl-pyrimidin-4-ylamino}-thiophene-3-carboxylic acid methylamide]	29.1 ± 1.03%	> 20 µM	14.1 ± 1.28 µM	10.1 ± 1.96 µM	> 40 µM	> 250 °C	–	–
CCCNc1c(Nc2ccc(Nc3ncc(C(F)(F)F)c(Nc4sccc4C(=O)NC)n3)cc2)c(=O)c1=O [6a, 2-{2-[4-(3,4-Dioxo-2-propylamino-cyclobut-1-enylamino)-phenylamino]-5-trifluoromethyl-pyrimidin-4-ylamino}-thiophene-3-carboxylic acid methylamide]	15.3 ± 0.48%	> 20 µM	> 20 µM	> 20 µM	> 40 µM	> 250 °C	–	–
CNC(=O)c1ccsc1Nc1nc(Nc2ccc(Nc3c(NC4CCN(C)CC4)c(=O)c3=O)cc2)ncc1C(F)(F)F [6h, 2-(2-{4-[2-(1-Methyl-piperidin-4-ylamino)-3,4-dioxo-cyclobut-1-enylamino]-phenylamino}-5-trifluoromethyl-pyrimidin-4-ylamino)-thiophene-3-carboxylic acid methylamide]	10.6 ± 0.93%	> 20 µM	> 20 µM	> 20 µM	> 40 µM	> 250 °C	–	–
CNC(=O)c1ccsc1Nc1nc(Nc2ccc(Nc3c(NCCNC(=O)C=Cc4cccc(F)c4)c(=O)c3=O)cc2)ncc1C(F)(F)F [8f, 2-{2-[4–(2-{2-[3-(3-Fluoro-phenyl)-acryloylamino]-ethylamino}-3,4-dioxo-cyclobut-1-enylamino)-phenylamino]-5-trifluoromethyl-pyrimidin-4-ylamino}-thiophene-3-carboxylic acid methylamide]	58.9 ± 1.92%	3.48 ± 0.22 µM	3.09 ± 0.66 µM	2.17 ± 0.54 µM	> 40 µM	> 250 °C	0.57 ± 0.29 µM	–
CNC(=O)c1ccsc1Nc1nc(Nc2ccc(Nc3c(NC4CCC(O)CC4)c(=O)c3=O)cc2)ncc1C(F)(F)F (centres unmarked) [6g, 2-(2-{4-[2–(4-Hydroxy-cyclohexylamino)-3,4-dioxo-cyclobut-1-enylamino]-phenylamino}-5-trifluoromethyl-pyrimidin-4-ylamino)-thiophene-3-carboxylic acid methylamide]	9.27 ± 0.25%	> 20 µM	> 20 µM	> 20 µM	> 40 µM	> 250 °C	–	–

— article PMC8920385, “Design, synthesis and biological evaluation of a series of dianilinopyrimidines as EGFR inhibitors” (Journal of Enzyme Inhibition and Medicinal Chemistry, 2022)
